# Assays:
# Assay type in all cases: cell-based, mouse
# [1] = system: Erk; assay: phospho-Erk signaling in BMDMs; settings: 1 mM TDMM 24 hours, LPS 1 ug/ml 15 minutes
# Procedure: (§1) The PI3K/Akt and MAPK/Erk signaling pathways regulate many cellular processes including survival, apoptosis, growth, and cytokine production. […] Specifically, BMDMs were treated with indole (1 mM) or DMF control for 18 hours, then stimulated with LPS (10 ug/ml) or CpG (5 uM) for 30 minutes. Cells were stained for phospho-Akt or phospho-Erk and analyzed by flow cytometry.
# (§2) The inventors performed a series of assays where bone marrow derived macrophages (BMDMs), bone marrow derived dendritic cells (BMDCs), and splenic dendritic cells (splenic DCs), were exposed to a series of TDMMs, including indole, indole-3-acetate (I3AT), 5-hydroxyindole (5HI), and indole-3-pyruvate (I3P), as well as indole-3-carbinol (I3C; a plant derived compound) to be used for a positive control (1 mM for 24 hours). The BMDMs and BMDCs were stimulated with LPS for 4 hours and assayed at day 7 for expression of various pro-inflammatory cytokines. In a similar assay, the BMDMs and BMDCs were stimulated with LPS or CpG, respectively, for 15 minutes and assayed for pAKT and pERK signaling, which is a reflection of pro-inflammatory response.
# [2] = system: Akt; assay: phospho-Akt in BMDCs, flow cytometry; settings: BMDCs, 1 mM TDMM 24 hours, CpG (5 uM) 15 minutes
# Procedure: Flow cytometric analysis was performed on BMDCs conditioned with indole from day 3 of culture and subsequently stimulated with LPS (5 ug/ml) for the given times. Cells were stained for phospho-Akt and analyzed by flow cytometry.
# Flow cytometric analysis was performed on BMDCs from WT or AhrKO mice cultured in the presence of indole (1 mM) from day 3. DCs were stimulated with LPS (5 ug/ml) for the given times and stained for phospho-Akt, which was detected by flow cytometry. Percentage of pAkt-positive DCs indicated. Representative data is from one of three independent experiments.
# Another central mediator of cellular signaling is the serine/threonine kinase, Akt (also referred to as protein kinase B), which regulates cellular processes including metabolism, growth, proliferation, and survival. The Akt pathway is activated by numerous receptor tyrosine kinases, cytokine receptors, G-protein-coupled receptors, and other molecules which activate the lipid kinase PI3K and result in production of phosphatidylinositol (3,4,5)-trisphosphate (PIPS). This second messenger acts as a docking site at the plasma membrane for Akt where phosphorylation and activation occurs. Akt is located upstream of NF-kB and can induce NF-kB signaling via phosphorylation of IKKα and Tp12. The effect of indole on Akt phosphorylation was assessed to determine whether indole's inhibition of NF-kB might be a secondary effect due to modulation of an upstream target.
# as §2
# [3] = system: Erk; assay: pERK signaling in BMDCs; settings: 1 mM TDMM 24 hours, CpG (5 uM) 15 minutes
# Procedure: as §2
# [4] = system: IL-12; assay: IL-12 production in BMDCs, intracellular staining, flow cytometry; settings: BMDCs, 1 mM TDMM 24 hours, LPS (1 ug/ml) 4 hours
# Procedure: (§3) Intracellular staining was performed to assess TNF (FIG. 3A) and IL-12 (FIG. 3B) production.
# (§4) Briefly, bone marrow was harvested from femurs of mice and cultured for 7 days in the presence of DC-skewing cytokines, GM-CSF and IL-4. […] The pro-inflammatory cytokines, IL-6 and IL-12, were specifically queried. […] Immune cells communicate largely through the production of soluble factors including cytokines, and DCs detect these signals and determine their effector functions accordingly.
# as §2
# [5] = system: Stat3; assay: IL-6 induced pSTAT3 signaling in splenic DCs; settings: for IL-6 induced pSTAT3 signaling in splenic DCs: TDMM 24 hours, 10 ng/ml IL-6 30 minutes; for IL-6 induced pSTAT3 expression, CD4+ DCs / IL-6 induced pSTAT3 expression, CD4− DCs: splenic DCs, 1 mM TDMM 24 hours, IL-6 (10 ng/ml) 30 minutes
# Procedure: Briefly, flow cytometric analysis was performed on splenic DCs conditioned with the indicated TDMMs for 24 hours and then subsequently stimulated with 10 ng/ml IL-6 for 30 minutes.
# [6] = system: TNF; assay: TNF production in BMDCs, intracellular staining, flow cytometry; settings: 1 mM TDMM 24 hours, LPS (1 ug/ml) 4 hours
# Procedure: Intracellular staining was performed to assess TNF production.
# as §3, §4, §2
# [7] = system: Akt; assay: phospho-Akt signaling in BMDMs; settings: 1 mM TDMM 24 hours, LPS 1 ug/ml 15 minutes
# Procedure: as §1, §2
# [8] = system: TNF; assay: TNF production in BMDMs, intracellular staining, flow cytometry; settings: BMDMs, 1 mM TDMM 24 hours, LPS 1 ug/ml 4 hours
# Procedure: (§5) BMDMs were treated with indole or DMF control for 18 hours or 4 hours, followed by stimulation with LPS (2 ug/ml or 250 ng/ml) for 4 hours in the presence of Golgiplug. BMDMs were then stained for intracellular TNF or IL-12 and analyzed by flow cytometry.
# (§6) First, pro-inflammatory cytokine production in macrophages was investigated. […] In the DC study described herein, DCs were typically conditioned with indole during their development from bone marrow precursors in order to mimic the proximity of DC progenitor cells to indole in the intestinal microenvironment during development. […] BMDMs were treated for 18 hours with indole, followed by a 4 hour stimulation with either a very high (2 ug/ml) or low (250 ng/ml) dose of LPS.
# (§7) Additionally, to determine if recently arrived macrophage precursors might also be affected, BMDMs were next treated for just 4 hours with indole, followed by a […] stimulation with the same LPS concentrations.
# (§8) To address the question of indole and AhR dependence in macrophages, experiments using BMDMs derived from AhR-knockout mice were run alongside wild-type littermate controls. Specifically, flow cytometric analysis of BMDMs was performed on WT or AhR-KO mice and treated with indole or DMF control for 18 hours. BMDMs were stimulated for 4 hours with LPS (50 ng/ml) in the presence of Golgiplug, then stained for intracellular TNF (left panels) and IL-12 (right panels).
# as §2
# (§9) Bone marrow was harvested as described above and cultured at a density of 1×10^6 cells in 10 ml complete media supplemented with 10 ng/ml M-CSF (Peprotech) in 100 mm×15 mm petri dishes. Media with cytokine was replenished on day 3. Adherent and semi-adherent cells were recovered on day 7, plated, and treated with indole prior to downstream experiments.
# [9] = system: IL-12; assay: IL-12 production in BMDMs, intracellular staining, flow cytometry; settings: BMDMs, 1 mM TDMM 24 hours, LPS 1 ug/ml 4 hours
# Procedure: as §5, §6, §7, §8, §2, §9
# [10] = system: B220 (CD45R); assay: B220 surface expression on BMDCs; settings: BMDCs cultured from day 3 with indole (1 mM) or retinoic acid (1 μM)
# Procedure: (§10) FIGS. 12A and 12B graphically illustrate that indole induces CCR9 and B220 on DCs. BMDCs were cultured in the presence of indole (1 mM), retinoic acid (1 μM), or DMF solvent control from day 3. On day 7, DCs were surface stained for expression of CCR9 and B220 and analyzed by flow cytometry. […] Mean of three independent experiments. * indicates p<0.05 for one-way ANOVA followed by Dunnett's post-test.
# An indole-induced upregulation of the B220 (CD45R) antigen was also observed (FIGS. 12A and 12B), which is widely used to distinguish the plasmacytoid DC lineage and is believed to contribute to gut homing. However, more recently B220 has been reported to distinguish a DC subset more closely developmentally related to conventional rather than plasmacytoid DCs and a precursor to resident CD8+ and CD8− conventional DCs.
# [11] = system: naïve CD4+CD25− T cells; assay: DC-T cell co-culture without cell contact (Transwell): Treg induction; settings: exogenous TGF-β added, 3 days
# Procedure: Transwell tissue culture plates were used to perform co-cultures with a physical barrier between the two cell types. Naïve CD4+CD25− T cells were FACS-sorted and placed in the bottom of a 24-well Transwell cell culture plate with 0.4 uM polycarbonate membranes that had been coated with α-CD3 (5 ug/ml) and α-CD28 (2 ug/ml). TGF-β was added at the indicated concentrations. […] The T cell to DC ratio was 2:1, as in other co-culture experiments. After 3 days, T cells were stained for Foxp3 and analyzed by flow cytometry.
# Naïve CD4+CD25− T cells were FACS-sorted and placed in the bottom of a 24-well Transwell cell culture plate with 0.4 uM polycarbonate membranes (Corning) that had been coated with 5 μg/mL αCD3 (BioXcell 145-2C11) and 2 μg/mL αCD28 (BioXcell 37.51). TGF-β was added at the indicated concentrations. The insert was placed in the well and washed, Day 3-treated BMDCs were added to the top chamber such that culture media was shared, but the cell types were kept physically separate. The T cell to DC ratio was 2:1, as in other co-culture experiments.
# [12] = system: CCR9; assay: CCR9 surface expression on BMDCs; settings: BMDCs cultured from day 3 with indole (1 mM) or retinoic acid (1 μM), day 7
# Procedure: as §10
# Dendritic cell subsets bear numerous surface antigens that regulate their migration and localization. Because indole is produced in the gut and appears to induce anti-inflammatory properties in DCs (as described above), it was hypothesized that indole might affect migration and retention in mucosal tissues. Thus, expression of the gut homing marker, chemokine receptor CCR9 was investigated. […] Retinoic acid (RA) was included as a positive control. RA is present in murine plasma at approximately […] and is predicted to exist at higher concentrations in tissue microenvironments in vivo. Thus, 1 uM was used as a conservative estimate of relevant physiological concentration. Indole's effect was even more profound than that of retinoic acid, a known inducer of mucosal homing markers on T cells (see, e.g., Iwata M, et al. (2004) Retinoic Acid Imprints Gut-Homing Specificity on T Cells. Immunity 21(4):527-538). […]
# [13] = system: CCR9; assay: CCR9 induction on naïve T cells by conditioned DCs; settings: no exogenous RA in the co-culture
# Procedure: FIG. 18 graphically illustrates that indole-conditioned DCs induce CCR9 on naïve T cells upon activation. Naïve CD4+CD25− T cells from OT-II mice were co-cultured with OVA323-339 peptide-loaded BMDCs for 72 hours in the presence of RA as indicated. BMDCs were previously treated with indole, RA, or DMF from day 3. Following 3 days of co-culture, surface staining was performed for flow cytometric analysis.
# Based on the observation that indole induces gut homing markers on developing DCs, it was queried whether indole-conditioned DCs could also confer gut homing markers upon naïve CD4+ T cells. The antigen-specific T cell activation model was used to address this question, and a titration of RA was included as a positive control to induce CCR9. […] Just 10 nM of RA enabled indole-DC co-cultures to achieve over 50% of T cells expressing CCR9 which was similar to RA-DC positive controls, whereas DMF-DC co-cultures with the same concentration of RA added achieved only 10% of CCR9+ T cells.
# Naïve CD4+CD25− T cells of spleen and lymph nodes from OT-II mice were isolated by negative selection via column purification using the Naïve CD4+ T Cell Isolation Kit (Miltenyi Biotec). Naïve CD4+ T cells (>96% pure) were labeled with Cell Proliferation Dye efluor450 (eBioscience) following manufacturer's instructions then co-cultured with OVA peptide-loaded BMDCs at a ratio of 2:1 for 72 hours in a 96-well round-bottom tissue culture plate. BMDCs were previously treated with indole or RA from day 3. On day 7, DCs were washed extensively prior to being loaded with OVA323-339 peptide (10 ug/ml) for 1 hour at 37° C. BMDCs were then washed three times and plated with naïve CD4+ T cells. RA or TGFβ were added to co-cultures as indicated. Following 3 days of culture, cells were stained with antibodies to CD4, CCR9, and LPAM-1 (α4β7). Intracellular staining for Foxp3 was performed using a Foxp3 staining kit (eBioscience). The remaining CD4+ helper T cell lineages Th1, Th2, and Th17 were identified by their cytokine production. […]
# [14] = system: naïve CD4+CD25− T cells; assay: T cell activation in the presence of BMDC supernatant: Treg induction; settings: T cells on α-CD3/α-CD28 plates, 72 hours
# Procedure: Specifically, naïve CD4+CD25− T cells were FACS-sorted and plated in 96-well, α-CD3 and α-CD28-coated tissue culture plates in a volume of 100 ul cell culture media. […] T cells with DC supernatant were cultured for 72 hours in the presence or absence of exogenous TGF-β. Subsequently, cells were stained for the transcription factor Foxp3 and analyzed by flow cytometry.
# Naïve CD4+CD25− T cells were FACS-sorted as described above and plated in 96-well, αCD3 and αCD28-coated tissue culture plates in a volume of 100 ul cell culture media. An equal volume of spent BMDC supernatant was added, in the presence or absence of exogenous TGF-β, and T cells were cultured for 72 hours. To generate supernatants, day 3-treated BMDCs were collected on day 7, washed extensively and plated in a 48-well cell culture plate at 5×10^5 cells per well in 500 ul fresh complete media for 24 hours in the presence or absence of 1 ug/ml LPS. Plates were then centrifuged and supernatants were collected, filtered, and stored at −20° C. until use.
compound,measurement,setting,value
"Oc1ccc2[nH]ccc2c1 [5HI, 5-hydroxyindole]",pERK,[1],reduced and ↓
same,pAKT,[2],reduced and ↓
same,pERK,[3],reduced and ↓
same,IL-12,[4],reduction and ↓
same,IL-6 induced pSTAT3 signaling in splenic DCs,[5],inhibits
same,"IL-6 induced pSTAT3 expression, CD4+ DCs",[5],↓
same,"IL-6 induced pSTAT3 expression, CD4− DCs",[5],↓
same,TNF,[6],reduction and ↓↓
same,pAKT,[7],reduced and ↓
"O=C(O)Cc1c[nH]c2ccccc12 [I3AT, indole-3-acetate]",TNF,[8],No effect
same,pERK,[1],No effect
same,pAKT,[2],reduced and ↓
same,pERK,[3],reduced and ↓
same,IL-12,[4],reduction and ↓
same,IL-6 induced pSTAT3 signaling in splenic DCs,[5],inhibits
same,"IL-6 induced pSTAT3 expression, CD4+ DCs",[5],↓
same,"IL-6 induced pSTAT3 expression, CD4− DCs",[5],↓
same,TNF,[6],reduction and ↓
same,pAKT,[7],No effect
same,IL-12,[9],reduction and ↓
"OCc1c[nH]c2ccccc12 [I3C, indole-3-carbinol, reference compound]",TNF,[8],↓↓↓↓
same,pERK,[1],↓↓↓↓
same,pAKT,[2],↓↓↓↓
same,pERK,[3],↓↓↓↓
same,IL-12,[4],↓↓↓
same,"IL-6 induced pSTAT3 expression, CD4+ DCs",[5],↓↓↓↓
same,"IL-6 induced pSTAT3 expression, CD4− DCs",[5],↓↓↓↓
same,TNF,[6],↓↓↓↓
same,pAKT,[7],↓↓
same,IL-12,[9],↓↓↓↓
"O=C(O)C(=O)Cc1c[nH]c2ccccc12 [I3P, indole-3-pyruvate]",pERK,[1],No effect
same,pAKT,[2],reduced and ↓
same,pERK,[3],reduced and ↓
same,IL-12,[4],reduction and ↓
same,IL-6 induced pSTAT3 signaling in splenic DCs,[5],inhibits
same,"IL-6 induced pSTAT3 expression, CD4+ DCs",[5],↓
same,"IL-6 induced pSTAT3 expression, CD4− DCs",[5],↓
same,TNF,[6],reduction and ↓
same,pAKT,[7],No effect
"CC1=C(/C=C/C(C)=C/C=C/C(C)=C/C(=O)O)C(C)(C)CCC1 [RA, all-trans retinoic acid, reference compound]",B220 (CD45R) expression on BMDCs,[10],does not induce B220
same,Treg induction by conditioned DCs without cell contact over solvent controls,[11],3 fold
same,surface expression of CCR9 on conditioned DCs,[12],22%
same,induction of CCR9 on naïve T cells by conditioned BMDCs alone,[13],sufficient
same,Treg induction by supernatant of conditioned BMDCs relative to solvent control DCs,[14],approximately 2 fold
